Experimental findings from patent publication US20240417387A1, “SULFONYLPIPERAZINYL COMPOUNDS FOR TREATMENT OF BACTERIAL INFECTIONS” (Hoffmann-La Roche Inc., priority 2021, published 2024) are described below.

Data set [1] has as its target Escherichia coli UDP-2,3-diacylglucosamine hydrolase (LpxH) (Escherichia coli (strain K12), UniProt P43341). The experiment in a line: Enzymatic IC50 assay of Escherichia coli LpxH (UMP/CMP-Glo luminescence). The data set is classed as biochemical. The following applies: Enzymatic IC50 against Escherichia coli LpxH; read-out: IC50 (converted). On the procedure: The inhibitory potency of compounds of Escherichia coli UDP-2,3-diacylglucosamine hydrolase (LpxH) was determined in an enzymatic assay. UDP-2,3-diacylglucosamine (UDP-DAG) was purified from the Caulobacter crescentus LpxI D225A mutant protein that contained a tightly bound UDP-DAG molecule. The enzyme was diluted using assay buffer containing 50 mM NaCl, 20 mM Tris-HCl pH7.5, 2.5 mM MnCl2, 0.01% Triton X-100.1 mg/mL BSA, and the final concentration is 2 nM. The compounds were diluted by Agilent liquid handler Bravo, the compound's serial dilution dose ranges from 100 μM to 1.7 nM. Then the enzyme and compounds mixture were incubated at room temperature for 10 mins. The enzymatic assay was started by adding UDP-DAG (FAC is 5 μM) and incubated for 20 mins at room temperature. The plate was then heated to 95° C. for 15 mins on a water batch to stop the reaction. The hydrolysis of UDP-DAG by LpxH yielded 2,3-diacylglucosamine 1-phosphate (lipid X) and UMP, which was converted to ATP and quantified by the luciferase reaction using the UMP/CMP-Glo™ Glycosyltransferase Assay kit from Promega. The compound's inhibitory effect of LpxH is determined by measuring the light change using a luminometer (Envision).

The subject of data set [2] is Escherichia coli BW 25113. The experiment in a line: Minimal Inhibitory Concentration (MIC) broth dilution assay, E. coli BW 25113. The class given is cell-based. The conditions noted are these: Escherichia coli, BW25113, 20 hours at 35° C., CAMHB, read-out: MIC E. coli K-12 BW 25113. On the procedure:
(§1) The antibacterial activity of molecules was evaluated against the commonly used quality control strain Escherichia coli BW 25113, Escherichia coli ATCC 25922 and the rifampin-resistant mutant strain Klebsiella pneumonia ATCC 43816. Escherichia co/i BW 25113 was obtained from the Coli Genetic Stock Center (CGSC) (strain 7636). Both Escherichia coli ATCC 25922 and Klebsiella pneumonia ATCC 43816 were originally derived from human clinical samples and are available from ATCC (American Type Culture Collection). The in vitro potency of compounds to inhibit Escherichia coli (BW 25113, ATCC 25922) and Klebsiella pneumonia (ATCC 43816) growth was assessed by the MIC (Minimal Inhibitory Concentration) broth dilution method. Specifically compound dilutions were prepared from 10 mM DMSO stock solutions as follows: i) serial 2-fold dilution in 20 μL DMSO were prepared in a master plate (Greiner, Cat No: 651201), ii) 180 μL sterile distilled water was added to each aliquot and iii) 10 μL diluted compounds were transferred into a new assay plate (Costar, 3599).
(§2) Vials of each test microorganisms were maintained frozen in the vapor phase of a liquid nitrogen freezer. Single-use frozen vials of the three strains Escherichia coli BW 25113, Escherichia coli ATCC 25922 (KWTKSTTK, 0335K) and Klebsiella pneumonia ATCC 43816, with predetermined CFU/mL, were taken out from the freezer, thawed at room temperature, and diluted in Cation-Adjusted Mueller Hinton Broth (CAMVIHB) to achieve a final inoculum of 5×10^5 CFU/mL. 90 μL bacteria containing broth was dispensed to the assay plate containing the pre-dispensed compound dilutions and mixed by pipetting 5 times.
(§3) Then the assay plates were incubated for 20 hours at 35° C. in ambient air. Following incubation, the MIC […], the lowest concentration of drug that inhibits visible growth of the microorganism was read with the help of a magnification mirror and recorded.

Data set [3] concerns Escherichia coli ATCC 25922. Put plainly: Minimal Inhibitory Concentration (MIC) broth dilution assay, E. coli ATCC 25922. The data set is classed as cell-based. The conditions noted are these: Escherichia coli. The protocol: as §1, §2, §3
Background: Broth dilution looks for growth in wells or tubes with falling amounts of substance.

Data set [4] relates to Klebsiella pneumonia ATCC 43816. The experiment in a line: Minimal Inhibitory Concentration (MIC) broth dilution assay, K. pneumonia ATCC 43816. The class given is cell-based. The conditions noted are these: Klebsiella pneumoniae, ATCC43816, 20 hours at 35° C., CAMHB, read-out: MIC K. p ATCC 43816. The protocol: as §1, §2, §3
A short description of data set [5]: Human microsome stability assay. The data set is classed as in vitro ADME. The following applies: human liver microsomes 0.5 mg/mL, 37° C., pH 7.4, NADPH regenerating system. The protocol:
The human microsomal stability assay is used for early assessment of metabolic stability of a test compound in human liver microsomes.
Human liver microsomes (Cat.NO.: 452117, Corning, USA) were preincubated with test compound for 10 minutes at 37° C. in 100 mM potassium phosphate buffer, pH 7.4. The reactions were initiated by adding NADPH regenerating system. The final incubation mixtures contained 1 µM test compound, 0.5 mg/mL liver microsomal protein, 1 mM MgCl2, 1 mM NADP, 1 unit/mL isocitric dehydrogenase and 6 mM isocitric acid in 100 mM potassium phosphate buffer, pH 7.4. After incubation times of 0, 3, 6, 9, 15 and 30 minutes at 37° C., 300 μL of cold acetonitrile (including internal standard) was added to 100 μL incubation mixture to terminate the reaction. Following precipitation and centrifugation, the amount of compound remaining in the samples were determined by LC-MS/MS. Controls of no NADPH regenerating system at zero and 30 minutes were also prepared and analyzed. […] (Human microsome clearance: <7 mL/min/kg: low; 7-16.2 mL/min/kg: medium; >16.2 mL/min/kg: high)

The mark [6] stands for this setting: ATCC25922, 20 h, read-out: MIC E. coli ATCC 25922.
Where [7] appears, read: ATCC25922, read-out: MIC E. coli ATCC 25922, broth dilution, 20 hours at 35° C., CAMHB, read-out: MIC E. coli K-12 ATCC 25922.

Values after ≈ are worked out from the molar mass of the structure shown. Where two headings read alike, the source gives them in different places.

Escherichia coli UDP-2,3-diacylglucosamine hydrolase (LpxH), sequence (P43341 whole entry): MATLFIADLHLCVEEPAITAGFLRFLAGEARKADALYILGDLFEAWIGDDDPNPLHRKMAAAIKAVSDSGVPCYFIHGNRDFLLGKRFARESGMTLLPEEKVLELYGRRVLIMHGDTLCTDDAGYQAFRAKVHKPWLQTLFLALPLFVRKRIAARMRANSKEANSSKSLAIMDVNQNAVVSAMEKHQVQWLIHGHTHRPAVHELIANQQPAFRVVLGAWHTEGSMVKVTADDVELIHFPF

A word on the IC50: it is the point on the concentration scale where inhibition reaches its midpoint. What is called MIC is the lowest concentration found to suppress growth. As for `N[C@@H]1CC(=O)N(c2ccc(S(=O)(=O)N3CCN(c4cc(C(F)(F)[C@H]5CC[C@H](C(=O)N[C@H]6CNC[C@H]6N)CC5)cc(Cl)n4)CC3)cc2)C1` (stereo in doubt) [Example 011, Trans-4-[[2-chloro-6-[4-[4-[(4R)-4-amino-2-oxo-pyrrolidin-1-yl]phenyl]sulfonylpiperazin-1-yl]-4-pyridyl]-difluoro-methyl]-N-[cis-4-aminopyrrolidin-3-yl]cyclohexanecarboxamide], the IC50 in data set [1] was 17.3 nM. Also, the MIC in data set [2], in data set [3] (setting [6]) and in data set [4] was 1.1 µg/mL (≈ 1.58 µM) each time. The “Clearance of Human microsome” value in data set [5] is given as 11.93 mL/min/kg.
Take `COC(=O)[C@H]1CC[C@H](C(F)(F)c2cc(Cl)nc(N3CCN(S(=O)(=O)c4ccc(N5CC(N)CC5=O)cc4)CC3)c2)CC1` (stereo partly drawn) [Example 001, Trans-methyl 4-[[2-[4-[4-(4-amino-2-oxo-pyrrolidin-1-yl)phenyl]sulfonylpiperazin-1-yl]-6-chloro-4-pyridyl]-difluoro-methyl]cyclohexanecarboxylate]: in data set [1], the IC50 is 3.19 nM. Further, the results for the MIC in data set [2], in data set [3] (setting [6]) and in data set [4] were 0.49 µg/mL (≈ 0.783 µM), 0.98 µg/mL (≈ 1.57 µM) and 0.98 µg/mL (≈ 1.57 µM), respectively.
`N[C@@H]1CC(=O)N(c2ccc(S(=O)(=O)N3CCN(c4cc(C(F)(F)[C@H]5CC[C@H](C(=O)NCC6CNC6)CC5)cc(Cl)n4)CC3)cc2)C1` [Example 002, Trans-4-[[2-[4-[4-[(4R)-4-amino-2-oxo-pyrrolidin-1-yl]phenyl]sulfonylpiperazin-1-yl]-6-chloro-4-pyridyl]-difluoro-methyl]-N-(azetidin-3-ylmethyl)cyclohexanecarboxamide]: the IC50 in data set [1] is less than 2.94 nM. The minimum inhibitory concentration (MIC) in data set [2], in data set [3] (setting [6]) and in data set [4] was 1.8 µg/mL (≈ 2.65 µM) throughout. For the same molecule, the “Clearance of Human microsome” value in data set [5] worked out at 6.15 mL/min/kg.
On to `NCCNCCNC(=O)c1ccc(C(F)(F)c2cc(Cl)nc(N3CCN(S(=O)(=O)c4ccc(N5C[C@H](N)CC5=O)cc4)CC3)c2)nc1` [Example 028, N-[2-(2-aminoethylamino)ethyl]-6-[[2-chloro-6-[4-[4-[(4R)-4-amino-2-oxo-pyrrolidin-1-yl]phenyl]sulfonylpiperazin-1-yl]-4-pyridyl]-difluoro-methyl]pyridine-3-carboxamide], for which the IC50 in data set [1] is 20.2 nM. The MIC in data set [2], in data set [3] (setting [7]) and in data set [4] was 1.6 µg/mL (≈ 2.31 µM) throughout.
Consider `N[C@@H]1CC(=O)N(c2ccc(S(=O)(=O)N3CCN(c4cc(C(F)(F)[C@H]5CC[C@@H](C(=O)NCCCO)CC5)cc(Cl)n4)CC3)cc2)C1` [Example 032], for which, in data set [1], the IC50 is less than 2.99 nM. Further, the MIC worked out at 3.3 µg/mL (≈ 4.93 µM) in data set [2], 2.2 µg/mL (≈ 3.29 µM) in data set [3] (setting [6]) and 2.2 µg/mL (≈ 3.29 µM) in data set [4].
Take `NCCCNC(=O)C1CCC(C(F)(F)c2cc(Cl)nc(N3CCN(S(=O)(=O)c4ccc(N5C[C@H](N)CC5=O)cc4)CC3)c2)C1` (stereo partly drawn) [Example 035, N-(3-aminopropyl)-3-[[2-chloro-6-[4-[4-[(4R)-4-amino-2-oxo-pyrrolidin-1-yl]phenyl]sulfonylpiperazin-1-yl]-4-pyridyl]-difluoro-methyl]cyclopentanecarboxamide]: the IC50 in data set [1] was 45.9 nM. The “Clearance of Human microsome” value in data set [5] was 8.90 mL/min/kg.
Taken in the same sequence, the figures for `NCCCNC(=O)C12CC(C(F)(F)c3cc(Cl)nc(N4CCN(S(=O)(=O)c5ccc(N6C[C@H](N)CC6=O)cc5)CC4)c3)(C1)C2` [Example 040] were 6.13 nM and 6.15 mL/min/kg.
Take `NCC(=O)NNC(=O)[C@H]1CC[C@H](C(F)(F)c2cc(Cl)nc(N3CCN(S(=O)(=O)c4ccc(N5C[C@H](N)CC5=O)cc4)CC3)c2)CC1` [Example 050, Trans-N′-(2-aminoacetyl)-4-[[2-chloro-6-[4-[4-[(4R)-4-amino-2-oxo-pyrrolidin-1-yl]phenyl]sulfonylpiperazin-1-yl]-4-pyridyl]-difluoro-methyl]cyclohexanecarbohydrazide]: the IC50 in data set [1] is 2.93 nM. In addition, the MIC stood at 2.1 µg/mL (≈ 3.07 µM) in data set [2], 1.1 µg/mL (≈ 1.61 µM) in data set [3] (setting [7]) and 1.1 µg/mL (≈ 1.61 µM) in data set [4].
With `NCCCNC(=O)[C@H]1CC[C@H](C(F)(F)c2cc(Cl)nc(N3CCC(S(=O)(=O)c4ccc(N5C[C@H](N)CC5=O)cc4)CC3)c2)CC1` [Example 062, Trans-N-(3-aminopropyl)-4-[[2-chloro-6-[4-[4-[(4R)-4-amino-2-oxo-pyrrolidin-1-yl]phenyl]sulfonyl-1-piperidyl]-4-pyridyl]-difluoro-methyl]cyclohexanecarboxamide], the IC50 in data set [1] is 33 nM. The “Clearance of Human microsome” value in data set [5] came to 7.74 mL/min/kg.
For `C[N+]1(CCN)CCN(C(=O)[C@H]2CC[C@H](C(F)(F)c3cc(Cl)nc(N4CCN(S(=O)(=O)c5ccc(N6C[C@H](N)CC6=O)cc5)CC4)c3)CC2)CC1` [Example 071, Trans-(4R)-4-amino-1-[4-[4-[4-[[4-[4-(2-aminoethyl)-4-methyl-piperazin-4-ium-1-carbonyl]cyclohexyl]-difluoro-methyl]-6-chloro-2-pyridyl]piperazin-1-yl]sulfonylphenyl]pyrrolidin-2-one], the IC50 in data set [1] was 14.9 nM. In addition, the “Clearance of Human microsome” value in data set [5] was 10.73 mL/min/kg.
For the molecule `NCC(N)CNC(=O)[C@H]1CC[C@H](C(F)(F)c2cc(Cl)nc(N3CCN(S(=O)(=O)c4ccc(N5C[C@H](N)CC5=O)cc4)CC3)c2)CC1` (stereo partly drawn) [Example 077, Trans-4-[[2-chloro-6-[4-[4-[(4R)-4-amino-2-oxo-pyrrolidin-1-yl]phenyl]sulfonylpiperazin-1-yl]-4-pyridyl]-difluoro-methyl]-N-(2,3-diaminopropyl)cyclohexanecarboxamide], the IC50 in data set [1] was 2.93 nM. The MIC in data set [2], in data set [3] (setting [7]) and in data set [4] was 2.2 µg/mL (≈ 3.22 µM) in each case.
In the case of `CNC(=O)c1ccc(C(F)(F)c2cc(Cl)nc(N3CCN(S(=O)(=O)c4ccc(N5CC(NCCCN)CC5=O)cc4)CC3)c2)cc1` (stereo not drawn) [Example 078, 4-[[2-[4-[4-[4-(3-Aminopropylamino)-2-oxo-pyrrolidin-1-yl]phenyl]sulfonylpiperazin-1-yl]-6-chloro-4-pyridyl]-difluoro-methyl]-N-methyl-benzamide], the half-inhibitory concentration (IC50) in data set [1] is 5.92 nM. Also, the MIC in data set [2] is 1.4 µg/mL (≈ 2.07 µM); in data set [3] (setting [7]), 2.8 µg/mL (≈ 4.14 µM); in data set [4], 2.1 µg/mL (≈ 3.11 µM).
